Experimental data published in patent US10010560B2, “Small molecule HSP70 inhibitors” (THE TRUSTEES OF THE UNIVERSITY OF PENNSYLVANIA, priority 2014, dated 2018).

Assays:
[1] = target: HSP70 (Homo sapiens, UniProt P0DMV8); experiment: B-PES pull-down assay in cultured tumor cells; format: cell-based; parameters: endogenous in cells; details: H1299 cells pretreated with excess (8×) compound for 1 h, then 20 μM B-PES
Excerpt: FIGS. 3A-3L illustrate that PET-16 binds directly to ADP-bound HSP70 and DnaK. Specifically, FIGS. 3A-3H are isothermal calorimetric titration (ITC) assays of the indicated compounds (NRLLLTG—SEQ ID NO: 7, PES or PET-16) with purified HSP70-ADP, DnaK-ADP or HSP70-ATP proteins. The data are representative of three independent experiments. FIGS. 3I and 3J are ITC assays for the interaction between HSP70 (aa 386-616 of SEQ ID NO: 2) protein and PET-16 (I) or TPP (J). Binding constants (Kd values) are shown (average and s.d. from three independent experiments). PET-16 also binds directly to the purified, full-length, nucleotide-free HSP70 protein, with a reported dissociation constant of 5.2+/−0.1 micromolar, which is the average and standard deviation from two independent experiments (data not shown). FIG. 3K is ITC assay of HSP70 protein preincubated with ADP and PES for 1 h. The mixture was titrated into the sample cell containing PET-16. The data are representative of three independent ITC experiments. FIG. 3L are western blots of human lung carcinoma (H1299) cells that were pretreated with DMSO or excess (8×) PET-16 for 1 h prior to the addition of 20 μM B-PES for 5 h and examined for the expression of HSP70 or BCL-xL. B-PES-containing complexes were captured by Avidin resins and immunoblotted either with anti-HSP70 or anti-BCL-xL antibody. […]

[2] = tested on: melanoma tumor cell line WM989; experiment: Combination with BRAF inhibitor Vemurafenib, viability; format: cell-based, human
Excerpt: FIG. 6 is a line graph illustrating that PET-16 synergizes with the BRAF inhibitor Vemurafenib to reduce the viability of the melanoma tumor cell line WM989 (▪). WM989 cells treated singularly with Vemurafenib are depicted by (●). No synergy was detected between Vemurafenib and PES-Cl.

[3] = tested on: mouse melanoma cell line B16; experiment: Pulmonary metastatic model, B16 melanoma; format: in vivo; details: C57BL/6 mice injected with B16
Protocol: FIGS. 7A-7C illustrate that PET-16 impairs metastasis in a mouse model of melanoma. A well-recognized pulmonary metastatic model was utilized in which immunocompetent, wild-type C57BL/6 mice were injected with the highly metastatic mouse melanoma cell line B16, as indicated. […] FIG. 7A is a summary of the steps entailed in the model. FIG. 7B are photographs of biopsied lungs obtained from the infected mice. FIG. 7C provides a graphical representation of counts of metastatic colonies intermediate gray square represents 0 colonies, lightest gray square represents 1-10 colonies and darkest gray square represents >10 colonies) seen in lungs of vehicle-, PES-Cl- or PET-16-treated mice.
The inhibitory effect of PET-16 on metastasis was tested in vivo, a well-recognized pulmonary metastatic model was utilized in which immunocompetent, wild-type C57BL/6 mice were injected with the highly metastatic mouse melanoma cell line B16 (FIG. 7).

[4] = tested on: tumor cells; experiment: Electron microscopy analysis of treated tumor cells; format: cell-based
Excerpt: (§1) FIGS. 4A-4L illustrate that PET-16 impairs proteostasis. […] There is a general absence of obvious nuclei in PET-16 treated tumor cells. […] FIGS. 4D and 4E are gels of whole-cell extracts (WCE) prepared from human melanoma A875 (D) or 451 Lu (E) cells treated with DMSO, PES or PET-16 that were immunoprecipitated using an anti-HSP70 antibody. The excised band of about 70 kDa shown in the Coomassie gel is HSP70, as confirmed by liquid chromatography—tandem mass spectrometry analysis. FIGS. 4F-4I are western blots of cell lines were treated with DMSO, PES or PET-16 for 24 h and immunoblotted for the indicated proteins. FIG. 4J are western blots of indicated melanomas pretreated with DMSO, PES or PET-16, followed by treatment with IL-6. Cell extracts were immunoblotted for the proteins indicated. Inhibition of IL-6 induced STAT3 and STAT1 phosphorylation by PET-16. FIG. 4K is a western blot analysis indicating altered processing of cathepsin L from the larger precursor form to the smaller mature form in the indicated cells following PET-16 treatment for 24 h. FIG. 4L is a western blot of the human melanoma 451 Lu cells treated with DMSO, PES or PET-16 for 24 h. Cells were harvested in 1% NP40-containing lysis buffer, fractionated into detergent-soluble and detergent-insoluble preparations, and assayed by western blot for ubiquitin. […]

[5] = tested on: LC3; experiment: Western blot for autophagy marker LC3; format: cell-based, human; details: A875 melanoma cell line
Excerpt: as §1

[6] = tested on: cathepsin L; experiment: Western blot of cathepsin L processing; format: cell-based; details: 24 h treatment
Excerpt: as §1

HSP70, sequence (P0DMV8 whole entry, the tested form may be a part): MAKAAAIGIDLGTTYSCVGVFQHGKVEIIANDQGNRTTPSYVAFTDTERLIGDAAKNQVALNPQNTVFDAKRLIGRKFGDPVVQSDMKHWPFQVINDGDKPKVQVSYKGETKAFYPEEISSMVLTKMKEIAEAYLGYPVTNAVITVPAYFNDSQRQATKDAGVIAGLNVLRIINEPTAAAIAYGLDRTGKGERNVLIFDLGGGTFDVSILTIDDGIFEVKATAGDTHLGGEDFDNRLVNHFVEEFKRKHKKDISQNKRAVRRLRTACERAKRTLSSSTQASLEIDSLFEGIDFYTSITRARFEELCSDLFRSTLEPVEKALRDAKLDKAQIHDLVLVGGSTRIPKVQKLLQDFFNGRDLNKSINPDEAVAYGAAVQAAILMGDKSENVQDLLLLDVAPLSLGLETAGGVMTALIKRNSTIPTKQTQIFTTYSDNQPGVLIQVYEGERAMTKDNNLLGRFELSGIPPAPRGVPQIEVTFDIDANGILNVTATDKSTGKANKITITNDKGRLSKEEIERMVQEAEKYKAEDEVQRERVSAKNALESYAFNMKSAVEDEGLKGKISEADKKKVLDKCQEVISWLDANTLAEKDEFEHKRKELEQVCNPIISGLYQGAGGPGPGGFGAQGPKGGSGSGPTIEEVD

**Q.** Which results are given for `C(#C[P+](c1ccccc1)(c1ccccc1)c1ccccc1)c1ccccc1.[Br-]` [PET-16, triphenyl(phenylethynyl)phosphonium bromide]?
**A.** amount of HSP70 in complex with B-PES [1]: clearly reduced; synergy with PLX4032 (Vemurafenib) [2]: able to synergize; lung metastases [3]: significantly reduced; autophagy and proteostasis by EM [4]: altered autophagy and impaired proteostasis; autophagy marker processed LC3II [5]: increase; cathepsin L processing [6]: accumulation of the precursor procathepsin L and a markedly reduced abundance of the smaller, mature form
